Measurements reported in patent publication US10344025B2, “GLS1 inhibitors for treating disease” (Board of Regents, The University of Texas System, priority 2014, dated 2019).

Columns and labels:
[1] = biological target: purified recombinant human GAC (GLS1) (Homo sapiens (Human), UniProt O94925); assay: GLS1 Enzymatic Activity Assay (dual-coupled enzymatic assay, resorufin/Amplex UltraRed readout); assay type: biochemical;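 further: glutamate from GAC coupled via glutamate oxidase and peroxidase to resorufin, read as fluorescence (ex 530, em 590 nm) kinetically or at 20 min, four-parameter logistic IC50 fit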
Chain of purified recombinant human GAC (GLS1) (O94925 other isoform, or with tags, fused parts or gaps): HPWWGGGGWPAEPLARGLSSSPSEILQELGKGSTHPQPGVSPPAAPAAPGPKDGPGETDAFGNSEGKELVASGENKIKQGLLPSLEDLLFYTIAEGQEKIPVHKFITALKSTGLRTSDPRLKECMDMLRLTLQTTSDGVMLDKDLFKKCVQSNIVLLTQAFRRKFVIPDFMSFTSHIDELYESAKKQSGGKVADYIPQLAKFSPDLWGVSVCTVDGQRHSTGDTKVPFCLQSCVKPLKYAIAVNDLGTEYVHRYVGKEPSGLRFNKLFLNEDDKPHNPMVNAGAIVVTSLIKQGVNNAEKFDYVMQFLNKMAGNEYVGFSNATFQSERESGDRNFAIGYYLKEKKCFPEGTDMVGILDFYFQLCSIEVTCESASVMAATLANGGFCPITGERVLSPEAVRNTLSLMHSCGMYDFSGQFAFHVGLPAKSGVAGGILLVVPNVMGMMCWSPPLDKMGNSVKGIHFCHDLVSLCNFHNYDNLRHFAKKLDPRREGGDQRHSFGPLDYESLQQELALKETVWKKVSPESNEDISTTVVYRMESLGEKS

A549 cells = assay: Proliferation Assay (A549 viability, Cell Titer Fluor, 72 hours); assay type: cell-based; conditions: Homo sapiens, A549, 72 h
How it was run: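 A549 cells seeded at 1000 cells/well, rested 24 h, then exposed to compound in 0.5% DMSO for 72 h at 37 °C. Viability read by Cell Titer Fluor fluorescence; IC50 from four-parameter logistic fit.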

SMILES | IC50 [1] [nM] | EC50 (A549 cells) [nM]
O=C(Cc1cc(OC(F)(F)F)ccc1F)Nc1nnc(CCC(F)Cn2cc(C(=O)NCc3ccc(C(F)(F)F)cn3)nn2)s1 (stereo not drawn) [Example 516, 1-[2-fluoro-4-(5-{2-[2-fluoro-5-(trifluoromethoxy)phenyl]acetamido}-1,3,4-thiadiazol-2-yl)butyl]-N-{[5-(trifluoromethyl)pyridin-2-yl]methyl}-1H-1,2,3-triazole-4-carboxamide] | < 100 | < 100
O=C(Cc1ccccn1)Nc1nnc(CCC(F)Cn2cc(C(=O)NCc3cccc(OC(F)(F)F)c3)nn2)s1 (stereo not drawn) [Example 513, 1-(2-fluoro-4-{5-[2-(pyridin-2-yl)acetamido]-1,3,4-thiadiazol-2-yl}butyl)-N-{[3-(trifluoromethoxy)phenyl]methyl}-1H-1,2,3-triazole-4-carboxamide] | < 100 | < 100
CNC(=O)c1cn(CCCCc2ccc(NC(=O)CC3CCOCC3)nn2)nn1 [Example 547, N-methyl-1-(4-{6-[2-(oxan-4-yl)acetamido]pyridazin-3-yl}butyl)-1H-1,2,3-triazole-4-carboxamide] | 100 to 500 | 500 to 5000
O=C(NCc1cccc(C(F)(F)F)n1)c1cn(CCC(F)Cn2cc(C(=O)NCc3cc(OC(F)(F)F)ccc3F)nn2)nn1 (stereo not drawn) [Example 422, 1-{2-fluoro-4-[4-({[6-(trifluoromethyl)pyridin-2-yl]methyl}carbamoyl)-1H-1,2,3-triazol-1-yl]butyl}-N-{[-fluoro-5-(trifluoromethoxy)phenyl]methyl}-1H-1,2,3-triazole-4-carboxamide] | < 100 | < 100
O=C(Cc1ccccn1)Nc1cn(CC(F)CCn2cc(C(=O)NCc3cccc(OC(F)(F)F)c3)nn2)nn1 (stereo not drawn) [Example 347, 1-(3-fluoro-4-(4-(2-(pyridin-2-yl)acetamido)-1H-1,2,3-triazol-1-yl)butyl)-N-(3-(trifluoromethoxy)benzyl)-1H-1,2,3-triazole-4-carboxamide] | < 100 | < 100
O=C(CN1CCC(F)(F)C1)Nc1cn(CCCCn2cc(C(=O)NCc3cc(Cl)ccc3F)nn2)nn1 [Example 355, N-[(5-chloro-2-fluorophenyl)methyl]-1-(4-{4-[2-(3,3-difluoropyrrolidin-1-yl)acetamido]-1H-1,2,3-triazol-1-yl}butyl)-1H-1,2,3-triazole-4-carboxamide] | 100 to 500 | 100 to 500
O=C(NCc1cccc(OC(F)(F)F)c1)c1cn(CC(F)CCc2nnc(NC(=O)C3CC3)s2)nn1 (stereo not drawn) [Example 568, 1-(4-(5-(cyclopropanecarboxamido)-1,3,4-thiadiazol-2-yl)-2-fluorobutyl)-N-(3-(trifluoromethoxy)benzyl)-1H-1,2,3-triazole-4-carboxamide] | < 100 | 100 to 500
O=C(Cc1cc(OC(F)(F)F)ccc1F)Nc1cn(CCC(F)Cn2cc(C(=O)NCc3cccc(OC(F)(F)F)c3)nn2)nn1 (stereo not drawn) [Example 416, 1-[2-fluoro-4-(4-{2-[2-fluoro-5-(trifluoromethoxy)phenyl]acetamido}-1H-1,2,3-triazol-1-yl)butyl]-N-{[3-(trifluoromethoxy)phenyl]methyl}-1H-1,2,3-triazole-4-carboxamide] | < 100 | < 100
O=C(NCc1cc(OC(F)(F)F)ccc1F)c1cn(CC(F)CCc2nnc(C(=O)NCc3ccc(C(F)(F)F)cn3)s2)nn1 (stereo not drawn) [Example 465, 5-{3-fluoro-4-[4-({[2-fluoro-5-(trifluoromethoxy)phenyl]methyl}carbamoyl)-1H-1,2,3-triazol-1-yl]butyl}-N-{[5-(trifluoromethyl)pyridin-2-yl]methyl}-1,3,4-thiadiazole-2-carboxamide] | < 100 | < 100
Cc1ccc(CNC(=O)c2cn(CCCCc3nnc(C(=O)NCc4ccccn4)s3)nn2)cn1 [Example 62, 5-[4-(4-{[(6-methylpyridin-3-yl)methyl]carbamoyl}-1H-1,2,3-triazol-1-yl)butyl]-N-(pyridin-2-ylmethyl)-1,3,4-thiadiazole-2-carboxamide] | 100 to 500 | 500 to 5000
O=C(Cc1cccc(OC(F)(F)F)c1)Nc1nnc(CCC(F)Cn2cc(C(=O)NCC3CC3)nn2)s1 (stereo not drawn) [Example 535, N-(cyclopropylmethyl)-1-[2-fluoro-4-(5-{2-[3-(trifluoromethoxy)phenyl]acetamido}-1,3,4-thiadiazol-2-yl)butyl]-1H-1,2,3-triazole-4-carboxamide] | < 100 | 100 to 500
O=C(CC1CCCC1)Nc1cn(CCCCn2cc(C(=O)NCc3cccc(OC(F)(F)F)c3)nn2)nn1 [Example 295, 1-{4-[4-(2-cyclopentylacetamido)-1H-1,2,3-triazol-1-yl]butyl}-N-{[3-(trifluoromethoxy)phenyl]methyl}-1H-1,2,3-triazole-4-carboxamide] | < 100 | < 100
O=C(NCc1cncc(C(F)(F)F)c1)c1cn(CCCCn2cc(C(=O)NCc3cncc(C(F)(F)F)c3)nn2)nn1 [Example 140, N-{[5-(trifluoromethyl)pyridin-3-yl]methyl}-1-{4-[4-({[5-(trifluoromethyl)pyridin-3-yl]methyl}carbamoyl)-1H-1,2,3-triazol-1-yl]butyl}-1H-1,2,3-triazole-4-carboxamide] | < 100 | < 100
CNC(=O)c1cn(CC(F)CCc2ccc(NC(=O)Cc3cncc(OC4CC(F)(F)C4)c3)nn2)nn1 (stereo not drawn) [Example 245, 1-(4-(6-(2-(5-(3,3-difluorocyclobutoxy)pyridin-3-yl)acetamido)pyridazin-3-yl)-2-fluorobutyl)-N-methyl-1H-1,2,3-triazole-4-carboxamide] | < 100 | < 100
Cc1ccc(CC(=O)Nc2cn(CCCCn3cc(C(=O)NCC4CCCC4)nn3)nn2)cn1 [Example 311, N-(cyclopentylmethyl)-1-(4-{4-[2-(6-methylpyridin-3-yl)acetamido]-1H-1,2,3-triazol-1-yl}butyl)-1H-1,2,3-triazole-4-carboxamide] | 100 to 500 | 500 to 5000
O=C(NCc1ccc(C(F)(F)F)cn1)c1cn(CC(F)CCc2nnc(C(=O)NCc3cc(OC(F)(F)F)ccc3F)s2)nn1 (stereo not drawn) [Example 448, 5-{3-fluoro-4-[4-({[5-(trifluoromethyl)pyridin-2-yl]methyl}carbamoyl)-1H-1,2,3-triazol-1-yl]butyl}-N-{[2-fluoro-5-(trifluoromethoxy)phenyl]methyl}-1,3,4-thiadiazole-2-carboxamide] | < 100 | < 100
O=C(CC1CCCCC1)Nc1cn(CCCCn2cc(C(=O)NCc3cccc(OC(F)(F)F)c3)nn2)nn1 [Example 296, 1-{4-[4-(2-cyclohexylacetamido)-1H-1,2,3-triazol-1-yl]butyl}-N-{[3-(trifluoromethoxy)phenyl]methyl}-1H-1,2,3-triazole-4-carboxamide] | < 100 | < 100
O=C(CN1CC(F)(F)C1)Nc1cn(CC(F)CCn2cc(C(=O)NCc3ccccn3)nn2)nn1 (stereo not drawn) [Example 392, 1-(4-{4-[2-(3,3-difluoroazetidin-1-yl)acetamido]-1H-1,2,3-triazol-1-yl}-3-fluorobutyl)-N-(pyridin-2-ylmethyl)-1H-1,2,3-triazole-4-carboxamide] | 500 to 5000 | > 5000
